Results as given in the supplement of paper PMC10307832.

Assays:
Test in all cases: relative viability (nuclei count vs DMSO), 5 days (fraction); higher = more cells survive
BGJ398 + Phenformin = compound: CCN1CCN(c2ccc(Nc3cc(N(C)C(=O)Nc4c(Cl)c(OC)cc(OC)c4Cl)ncn3)cc2)CC1 [BGJ398] + N=C(N)NC(=N)NCCc1ccccc1 [Phenformin] (partner 250 µM)
In short: (§1)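 Relative viability is defined as nuclei in treated wells over nuclei in vehicle wells. Duplicate plates were run and medians reported. Lung cancer cell lines in 1536-well plates were dosed by pin tool one day after seeding, with one drug or with a fixed anchor-drug dose plus five library-drug doses (not always all listed) in √10 steps, and nuclei were counted after 5 days.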

[1] = compound: C1=CC2=NC=CN=C2C=C1/C=C/3\C(=O)NC(=O)S3 + CS(=O)(=O)N1CCN(Cc2cc3nc(-c4cccc5[nH]ncc45)nc(N4CCOCC4)c3s2)CC1 [Pictilisib] (partner 1 µM)
In short: as §1

[2] = compound: C1=CC2=NC=CN=C2C=C1/C=C/3\C(=O)NC(=O)S3 + NC(=O)Nc1cc(-c2cccc(F)c2)sc1C(=O)N[C@H]1CCCNC1 [AZD7762] (partner 0.2 µM)
In short: as §1

[3] = compound: C1=CC2=NC=CN=C2C=C1/C=C/3\C(=O)NC(=O)S3 + CC(=O)Nc1cccc(-n2c(=O)n(C3CC3)c(=O)c3c(Nc4ccc(I)cc4F)n(C)c(=O)c(C)c32)c1 [Trametinib] (partner 0.02 µM)
In short: as §1

Cell Line	relative viability (BGJ398 + Phenformin; first compound 0.01 µM)	relative viability (BGJ398 + Phenformin; first compound 0.03162 µM)	relative viability (BGJ398 + Phenformin; first compound 0.1 µM)	relative viability (BGJ398 + Phenformin; first compound 0.3162 µM)	relative viability (BGJ398 + Phenformin; first compound 1 µM)	relative viability ([1]; first compound 0.02 µM)	relative viability ([1]; first compound 0.06325 µM)	relative viability ([1]; first compound 0.2 µM)	relative viability ([1]; first compound 0.6325 µM)	relative viability ([1]; first compound 2 µM)	relative viability ([2]; first compound 0.02 µM)	relative viability ([2]; first compound 0.06325 µM)	relative viability ([2]; first compound 0.2 µM)	relative viability ([2]; first compound 0.6325 µM)	relative viability ([2]; first compound 2 µM)	relative viability ([3]; first compound 0.02 µM)	relative viability ([3]; first compound 0.06325 µM)	relative viability ([3]; first compound 0.2 µM)	relative viability ([3]; first compound 0.6325 µM)	relative viability ([3]; first compound 2 µM)
NCI-H2170	0.374	0.428	0.448	0.393	0.341	0.296	0.273	0.369	0.28	0.258	0.849	0.866	0.888	0.766	0.874	0.866	1.01	1.03	0.868	0.986
NCI-H460	0.491	0.565	0.622	0.472	0.465	0.376	0.281	0.338	0.324	0.199	0.581	0.438	0.576	0.621	0.456	0.0917	0.0921	0.223	0.11	0.0876
HCC-15	0.439	0.497	0.504	0.475	0.496	0.765	0.787	0.86	0.665	0.754	1.01	1.05	1.16	1.18	1	0.41	0.393	0.397	0.353	0.263
LCLC-103H	0.317	0.331	0.336	0.284	0.277	0.61	0.768	0.706	0.539	0.531	0.658	0.886	0.828	0.749	0.629	0.676	0.701	0.634	0.665	0.666
NCI-H441	0.793	0.642	0.848	0.879	1.01	0.453	0.48	0.447	0.573	0.477	1.07	1.18	1.3	1	1.1	0.409	0.52	0.451	0.343	0.305
EPLC-272H	0.243	0.283	0.272	0.247	0.38	0.411	0.407	0.364	0.297	0.153	0.332	0.319	0.333	0.192	0.293	0.253	0.261	0.273	0.296	0.293
